{"source": "patent US5945508A", "about": "“Substance P treatment for immunostimulation” (priority 1997, dated 1999)", "key": {"Spleen T Cell": {"tested_on": "Spleen T Cell", "assay": "Mitogenesis of spleen T cells, LP-BM5 mouse AIDS model", "assay_type": "in vivo, C57BL6 mice", "procedure": "(§1) C57BL6 mice, average weight of 25-30 grams, were infected with the LP-BM5 murine leukemia retrovirus to simulate the human AIDS virus. […] The mice were divided into two groups; LP-BM5 virus only and LP-BM5 virus+substance P aerosol therapy at 1 μM concentration. The mice were killed at 4 and 8 weeks postinoculation.\nThe proliferation of splenic B and T cells induced by mitogens was determined by incorporation of radioactive thymidine. Splenocytes in 0.1 ml of cell culture medium (1×10 ^7 cells/ml) were cultured in 96-well flat-bottom cultured plates with ConA and lipopolysaccharide, 5 micrograms/ml). […] After 4 hours for radioactive thymidine uptake, the cells were harvested by a cell sample harvester. Radioactivity was determined by a liquid scintillation counter (Tri-Carb, 2200CA). The T and B cell mitogenesis values were recorded as counts per min in 1×10^7 cells/ml."}, "immune system organs": {"tested_on": "immune system organs", "assay": "Organ weight and total cell recovery", "assay_type": "in vivo, C57B16 mice", "set-up": "Spleen Cell Number / Thymus Cell Number / LN Cell Number / BM Cell Number: scale not given here; Spleen Weight / Thymus Weight: unit not given here", "procedure": "(§2) At 24 hours after the last exposure, the animals were sacrificed and the effects of exposure on the immune system examined. Immune organs (spleen, thymus, blood, lymph nodes and bone marrow) were recovered and analyzed for effects on organ weight, total cell numbers, immune cell populations (by differentials), and lymphocyte subpopulations (by flow cytometry). Assays were also performed to examine the effects of exposure on immune function. […] Similar effects on immune cell subpopulations were also observed in lymph nodes. In the thymus it appeared that the immature CD4^+ CD8^+ cells were differentially lost due to exposure. […] However, these effects are prevented or ameliorated by treatment of the animals with Substance P.\nFor each of the immune system organs (spleen, lymph nodes and thymus) the wet weight is determined after removal using a microbalance. After processing of the organs into single cell suspensions the cell numbers and viabilities are determined using trypan blue staining. Histochemical differentials are performed at this time. Cell numbers and viabilities are again determined after centrifugation of the cell suspensions through density gradients to obtain mononuclear cells."}, "interleukin-6": {"tested_on": "interleukin-6", "assay": "Spleen cytokine ELISA, LP-BM5 mouse AIDS model", "assay_type": "in vivo, C57BL6 mice", "details": "SP aerosol 1 μM", "procedure": "as §1\n(§3) Spleen cytokine assays for interleukin-6 and interferon-gamma were conducted by standard mouse ELISA assays. The antibodies for IL-6 and interferon-gamma were purchased from Genzyme, Inc. and Collaborative Research, respectively. Briefly, flat bottom polyvinylchloride 96-well enzyme immunoassay plates were coated with […] monoclonal antibody in 0.05 ml bicarbonate buffer (pH 9.6) to each cytokine. After washing in phosphate-buffered saline containing 0.05% (v/v) Tween-20, plates were incubated in blocking reagent (1% bovine serum albumin in buffer). For the standard curves for each cytokine assay, serial dilutions of recombinant cytokine were added to a set of wells from anti-cytokine coated plates. After two hours at room temperature and three subsequent washings, biotinylated-anti-cytokine will be added to respective wells diluted 1:500 in blocking reagent. All plates were then incubated for an additional two hours at room temperature, washed three times, then […] of 1:5000 avidin-peroxidase was added. After an additional 3 washes, […] of the substrate mixture was added to each well (ABTS plus hydrogen peroxide solution). After an incubation at room temperature for 10-15 minutes, stopping reagent ([…] of a 12 g NaOH in 50 ml water solution) was added. Readings were taken at 405 nm with 490 nm reference using a microELISA spectrophotometric plate reader. Values of interluekin-6 and interferon-gamma were expressed as nanograms/ml."}, "interferon-gamma": {"tested_on": "interferon-gamma", "assay": "Spleen cytokine ELISA, LP-BM5 mouse AIDS model", "assay_type": "in vivo, C57BL6 mice", "details": "SP aerosol 1 μM", "procedure": "as §1, §3"}, "[1]": {"tested_on": "murine melanoma B16 cancer cells", "details": "1×10^5 B16 cells, mean (SEM)", "protocol": "The mice were infected with 1×10^5 murine melanoma B16 cancer cells by tail vein injection. […] The second group of mice was treated with the same SP dose starting at one week post-injection for seven days. Survival was assessed to determine the effect of SP aerosol therapy in prolonging life when mice are challenged with a massive cancer challenge."}, "immune system": {"tested_on": "immune system", "assay": "Immunotoxicology of exposure to jet fuel JP-8", "assay_type": "in vivo, C57B16 mice", "details": "JP-8 exposed animals treated with Substance P", "procedure": "as §2"}, "[2]": {"tested_on": "LP-BM5 murine leukemia retrovirus", "assay": "Spleen changes and total cell numbers, LP-BM5 mouse AIDS model", "assay_type": "in vivo, C57BL6 mice", "procedure": "as §1"}, "Spleen B Cell": {"tested_on": "Spleen B Cell", "assay": "Mitogenesis of spleen B cells, LP-BM5 mouse AIDS model", "assay_type": "in vivo, C57BL6 mice", "procedure": "as §1\nThe proliferation of splenic B and T cells induced by mitogens was determined by incorporation of radioactive thymidine. Splenocytes in 0.1 ml of cell culture medium (1×10 ^7 cells/ml) were cultured in 96-well flat-bottom cultured plates with ConA and lipopolysaccharide, 5 micrograms/ml). The cells were incubated at 37° C., 5% CO2 incubator for 72 hours for ConA-induced T cell proliferation, and then pulsed with ^3 H-thymidine (1 microCurie/well). After 4 hours for radioactive thymidine uptake, the cells were harvested by a cell sample harvester. Radioactivity was determined by a liquid scintillation counter (Tri-Carb, 2200CA). The T and B cell mitogenesis values were recorded as counts per min in 1×10^7 cells/ml."}, "[3]": {"details": "4 weeks after LP-BM5 infection, SP aerosol 1 μM 3 days/week, 25 Hours in Culture"}, "[4]": {"details": "4 weeks after LP-BM5 infection, SP aerosol 1 μM 3 days/week, 48 Hours in Culture"}, "[5]": {"details": "4 weeks after LP-BM5 infection, SP aerosol 1 μM 3 days/week, 72 Hours in Culture"}, "[6]": {"details": "8 weeks post-infection with LP-BM5, SP aerosol 1 μM, 72 hours in culture"}, "[7]": {"details": "JP-8 1000 mg/m^3 + SP, nSP (1 nM), CP or RP"}, "[8]": {"details": "8 weeks post-infection with LP-BM5"}}, "note": "Where two headings read alike, the source gives them in different places."}
{"substance": "Substance P [SP]", "values": [{"measurement": "Spleen T Cell Mitogenesis", "setting": "Spleen T Cell; [3]", "result": "2963 (56) counts per min"}, {"measurement": "Spleen T Cell Mitogenesis", "setting": "Spleen T Cell; [4]", "result": "2769 (23) counts per min"}, {"measurement": "Spleen T Cell Mitogenesis", "setting": "Spleen T Cell; [5]", "result": "4362 (69) counts per min"}, {"measurement": "Spleen T Cell Mitogenesis", "setting": "Spleen T Cell; [6]", "result": "3127 (77) counts per min"}, {"measurement": "BM Cell Number", "setting": "immune system organs; JP-8 250 mg/m^3 + SP", "result": 23}, {"measurement": "LN Cell Number", "setting": "immune system organs; JP-8 250 mg/m^3 + SP", "result": 10.8}, {"measurement": "Spleen Cell Number", "setting": "immune system organs; JP-8 250 mg/m^3 + SP", "result": 40}, {"measurement": "Spleen Weight", "setting": "immune system organs; JP-8 250 mg/m^3 + SP", "result": 0.16}, {"measurement": "Thymus Cell Number", "setting": "immune system organs; JP-8 250 mg/m^3 + SP", "result": 70}, {"measurement": "Thymus Weight", "setting": "immune system organs; JP-8 250 mg/m^3 + SP", "result": 0.06}, {"measurement": "BM Cell Number", "setting": "immune system organs; [7]", "result": 21}, {"measurement": "LN Cell Number", "setting": "immune system organs; [7]", "result": 5.0}, {"measurement": "Spleen Cell Number", "setting": "immune system organs; [7]", "result": 72}, {"measurement": "Spleen Weight", "setting": "immune system organs; [7]", "result": 0.14}, {"measurement": "Thymus Cell Number", "setting": "immune system organs; [7]", "result": 78}, {"measurement": "Thymus Weight", "setting": "immune system organs; [7]", "result": 0.11}, {"measurement": "BM Cell Number", "setting": "immune system organs; JP-8 2500 mg/m^3 + SP", "result": 19}, {"measurement": "LN Cell Number", "setting": "immune system organs; JP-8 2500 mg/m^3 + SP", "result": 5.0}, {"measurement": "Spleen Cell Number", "setting": "immune system organs; JP-8 2500 mg/m^3 + SP", "result": 87}, {"measurement": "Spleen Weight", "setting": "immune system organs; JP-8 2500 mg/m^3 + SP", "result": 0.10}, {"measurement": "Thymus Cell Number", "setting": "immune system organs; JP-8 2500 mg/m^3 + SP", "result": 96}, {"measurement": "Thymus Weight", "setting": "immune system organs; JP-8 2500 mg/m^3 + SP", "result": 0.08}, {"measurement": "reversal of effects of JP-8 exposure on the immune system", "setting": "immune system organs; Substance P at both 1 uM and 1 nM doses", "result": "significantly reversed"}, {"measurement": "BM Cell Number", "setting": "immune system organs; dose 0 (no JP-8) + SP or CP", "result": 9}, {"measurement": "Spleen Cell Number", "setting": "immune system organs; dose 0 (no JP-8) + SP or CP", "result": 30}, {"measurement": "Spleen Weight", "setting": "immune system organs; dose 0 (no JP-8) + SP or CP", "result": 0.10}, {"measurement": "Thymus Cell Number", "setting": "immune system organs; dose 0 (no JP-8) + SP or CP", "result": 18}, {"measurement": "Thymus Weight", "setting": "immune system organs; dose 0 (no JP-8) + SP or CP", "result": 0.04}, {"measurement": "Spleen Cytokine Production Interleukin-6", "setting": "interleukin-6; 4 weeks after LP-BM5 infection", "result": "0.1334 (0.02) nanogram/ml"}, {"measurement": "Spleen Cytokine Production Interleukin-6", "setting": "interleukin-6; [8]", "result": "0.1480 (0.02) nanogram/ml"}, {"measurement": "Spleen Cytokine Production Interferon-Gamma", "setting": "interferon-gamma; 4 weeks after LP-BM5 infection", "result": "1.5188 (0.21) nanogram/ml"}, {"measurement": "Spleen Cytokine Production Interferon-Gamma", "setting": "interferon-gamma; [8]", "result": "1.072 (0.09) nanogram/ml"}, {"measurement": "Days alive after B16 cells", "setting": "[1]; 1 μM SP aerosol 15 min/day 7 days starting immediately", "result": "31.5 (3.8) Days"}, {"measurement": "Days alive after B16 cells", "setting": "[1]; SP aerosol 7 days starting one week after B16 cells", "result": "26.0 (2.0) Days"}, {"measurement": "reversal of effects of JP-8 exposure on all measured parameters", "setting": "immune system", "result": "invariably reversed the effects on all measured parameters of JP-8 exposure to almost normal levels"}, {"measurement": "total cell numbers (spleen) versus LP-BM5 group", "setting": "[2]; 4 weeks after LP-BM5 infection, SP aerosol 1 μM", "result": "not accompanied by an increase in total cell numbers"}, {"measurement": "changes in the mouse spleens", "setting": "[2]; LP-BM5 mouse model, substance P aerosol therapy", "result": "significant changes in the mouse spleens"}, {"measurement": "Spleen B Cell Mitogenesis", "setting": "Spleen B Cell; [3]", "result": "2063 (448) counts per min"}, {"measurement": "Spleen B Cell Mitogenesis", "setting": "Spleen B Cell; [4]", "result": "1369 (231) counts per min"}, {"measurement": "Spleen B Cell Mitogenesis", "setting": "Spleen B Cell; [5]", "result": "1642 (158) counts per min"}, {"measurement": "Spleen B Cell Mitogenesis", "setting": "Spleen B Cell; [6]", "result": "3227 (854) counts per min"}]}
